For 15 compounds, IC50 and testosterone levels results are on record in patent publication US9133160B2, “Substituted benzimidazole and imidazopyridine compounds useful as CYP17 modulators” (Bristol-Meyers Squibb Company, priority 2010, dated 2015).

One experiment concerns the target Human CYP17 (Homo sapiens (Human), UniProt P05093). The experiment is described as follows: CYP17 Total SPA Assay. The format is biochemical. As to conditions: microsomes from HEK2 cells stably transfected with CYP17; 3H-Pregnenolone 1 uM, NADPH 2 mM; read-out: Human CYP17 Inhibition SPA IC50. The procedure: CYP17 Total SPA Assay The assays were performed in U-bottom 384-well optiplates. […] The reaction was initiated by the combination of the microsomes and substrates in wells containing compound. The reaction was incubated at room temperature for 45 minutes and terminated by adding 7.5 μl of 0.2N HCl to each well. […] The plate was sealed and incubated overnight with shaking at 4° C. The beads were allowed to settle in the plate for 1 hour and the plate read on a TOPCOUNT® (Perkin-Elmer) plate reader. […] The final concentration of reagents in the assays are NADPH, 2 mM; 3H-Pregnenolone, 1 uM; microsomes, 1.25 ug/ml; […] Dose response curves were generated to determine the concentration required inhibiting 50% of enzyme activity (IC50). Compounds were dissolved at 10 mM in dimethylsulfoxide (DMSO) and evaluated at eleven concentrations, each in duplicate. IC50 values were derived by non-linear regression analysis. Table 3 below lists the IC50 values for the following examples of this invention measured in the Total CYP17 SPA Assay hereinabove.

The subject of a further experiment is testosterone levels. The experiment is described as follows: 1-Day Cyno PK/PD Study (plasma testosterone). Particulars: cynomolgus monkeys, single oral dose 2 mg/kg in 80% PEG-400/water, 24 hour period. The format is in vivo. The procedure:
Example 31 was formulated in 80% PEG-400/water at a volume of 1 mL/kg of monkey and administered orally at 2 mg/kg. The formulation was then dosed orally at time=0 hours and blood samples were taken over a 24 hour period to monitor for drug exposure and testosterone levels. (♦) Example 31 (nM); (▴) testosterone (ng/dL).
1-Day Cyno PK/PD Study Protocol
Animals: All procedures involving animals and their care were conducted in conformity with the guidelines that are in compliance with the Bristol-Myers Squibb Institutional Animal Care and Use Committee. Fully mature male cynomolgus monkeys (>4 yrs of age; 5-6 kg) were from an in-house colony. All the monkeys used had chronically implanted femoral vein access ports. For oral studies, all animals were fasted overnight prior to dosing and were fed 4 hr after dosing. […]
Sampling: Blood samples were collected from the femoral port, at 15, 30, and 45 min, and 1, 2, 4, 6, 8, 12, 24, 30, and 48 hr after oral administration. […] The plasma fraction was immediately separated by centrifugation (14,000 rpm, 10 min, 4° C.), frozen on dry ice, and stored at −20° C. until the samples were analyzed.
Analysis of Tested Compound: Plasma samples were thawed and treated with two volumes of acetonitrile containing internal standard. After centrifugation to remove precipitated proteins, an aliquot of supernatant was analyzed by LC/MS/MS. […]

Human CYP17, sequence (P05093 whole entry): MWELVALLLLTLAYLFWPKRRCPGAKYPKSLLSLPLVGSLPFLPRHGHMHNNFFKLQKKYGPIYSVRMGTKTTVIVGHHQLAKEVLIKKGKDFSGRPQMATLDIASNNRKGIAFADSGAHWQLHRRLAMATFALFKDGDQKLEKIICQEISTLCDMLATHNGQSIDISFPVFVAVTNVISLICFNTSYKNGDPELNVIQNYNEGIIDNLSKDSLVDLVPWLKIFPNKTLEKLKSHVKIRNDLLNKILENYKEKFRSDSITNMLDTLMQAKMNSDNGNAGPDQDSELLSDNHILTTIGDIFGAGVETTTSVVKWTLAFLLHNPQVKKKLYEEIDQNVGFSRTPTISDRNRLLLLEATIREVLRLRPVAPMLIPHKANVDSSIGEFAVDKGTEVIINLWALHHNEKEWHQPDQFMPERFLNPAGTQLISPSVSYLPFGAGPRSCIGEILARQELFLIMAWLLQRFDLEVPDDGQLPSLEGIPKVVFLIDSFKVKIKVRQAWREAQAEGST

For the compound `Cc1ccncc1-c1cccc2c1ncn2-c1ccccn1` [Example 2, 4-(4-methylpyridin-3-yl)-1-(pyridin-2-yl)-1H-benzo[d]imidazole], on Human CYP17, the IC50 is 5.8 nM. As for `Cc1ccncc1-c1cccc2c1ncn2-c1cnccn1` [Example 4, 4-(4-methylpyridin-3-yl)-1-(pyrazin-2-yl)-1H-benzo[d]imidazole], the IC50 on Human CYP17 was 37 nM. For the compound `Cc1ccncc1-c1cccc2c1ncn2-c1cccnn1` [Example 6, 4-(4-methylpyridin-3-yl)-1-(pyridazin-3-yl)-1H-benzo[d]imidazole], the IC50 on Human CYP17 was determined as 250 nM. Consider `Cc1ccncc1-c1cccc2c1ncn2-c1cccc(C(F)(F)F)n1` [Example 9, 4-(4-methylpyridin-3-yl)-1-(6-(trifluoromethyl)pyridin-2-yl)-1H-benzo[d]imidazole], for which the IC50 on Human CYP17 came to 40 nM.

With `Cc1ccncc1-c1cccc2c1ncn2-c1cccc(F)n1` [Example 14, 1-(6-fluoropyridin-2-yl)-4-(4-methylpyridin-3-yl)-1H-benzo[d]imidazole], the IC50 on Human CYP17 was 11 nM. As to `Cc1ccncc1-c1cccc2c1ncn2-c1ncc(F)cc1F` [Example 15, 1-(3,5-difluoropyridin-2-yl)-4-(4-methylpyridin-3-yl)-1H-benzo[d]imidazole], the IC50 at Human CYP17 was 758 nM. Still for that read-out and setting: the figure for `Cc1ccncc1-c1cccc2c1ncn2-c1ccncn1` [Example 29, 4-(4-methylpyridin-3-yl)-1-(pyrimidin-4-yl)-1H-benzo[d]imidazole] is 656 nM; for `Cc1ccncc1-c1cccc2c1ncn2-c1ccncc1` [Example 30, 4-(4-methylpyridin-3-yl)-1-(pyridin-4-yl)-1H-benzo[d]imidazole] it is 405 nM. Take `Cc1ccncc1-c1cccc2c1ncn2CC(F)(F)F` [Example 31, 4-(4-Methylpyridin-3-yl)-1-(2,2,2-trifluoroethyl)-1H-benzo[d]imidazole]: the IC50 on Human CYP17 turned out to be 12 nM. The same compound displayed a testosterone levels with testosterone levels of around 15 ng/dL.

As for `Cc1ccncc1-c1cccc2c1ncn2CC#N` [Example 35, 2-(4-(4-Methylpyridin-3-yl)-1H-benzo[d]imidazol-1-yl)acetonitrile], the IC50 on Human CYP17 came out at 330 nM. For `Cc1ccncc1-c1cccc2c1ncn2C1CC1` [Example 37, 1-Cyclopropyl-4-(4-methylpyridin-3-yl)-1H-benzo[d]imidazole], at Human CYP17, the IC50 was 396 nM. For `FC(F)(F)Cn1cnc2c(-c3cnccc3Cl)cccc21` [Example 39, 4-(4-Chloropyridin-3-yl)-1-(2,2,2-trifluoroethyl)-1H-benzo[d]imidazole], the IC50 on Human CYP17 was 361 nM. Take `Nc1ncncc1-c1cccc2c1ncn2CC(F)(F)F` [Example 44, 5-(1-(2,2,2-Trifluoroethyl)-1H-benzo[d]imidazol-4-yl)pyrimidin-4-amine]: the IC50 at Human CYP17 worked out at 674 nM. As for `CCOc1ncncc1-c1cccc2c1ncn2CC(F)(F)F` [Example 45, 4-(4-Ethoxypyrimidin-5-yl)-1-(2,2,2-trifluoroethyl)-1H-benzo[d]imidazole], on Human CYP17, the IC50 was 135 nM.

On to `Nc1ncncc1-c1cccc2c1ncn2-c1ccc(F)cc1F` [Example 46, 5-(1-(2,4-Difluorophenyl)-1H-benzo[d]imidazol-4-yl)pyrimidin-4-amine], for which the IC50 on Human CYP17 stood at 797 nM.
